89 compounds from a melting point compilation (Tetko et al.; mined from patent text by program, amines drawn as free bases though some values may be those of a salt) can be followed below.

The compound `O=C(Nc1ccc(C(F)(F)F)cc1)N1CC2CCc3cc(Cl)ccc3C2=N1` (centres undefined) yielded a melting point of 196 to 199 °C.

The compound `NS(=O)(=O)c1cccc(-c2cn(-c3nc(-c4ccc(F)cc4)cc(C(F)(F)F)n3)cn2)c1` displayed a melting point of 260 °C.

Consider `CC(C)C1(Br)Cc2cc(OCC(=O)O)c(Cl)c(Cl)c2C1=O` (centres undefined), for which the melting point was 150 to 153 °C.

Turning to `CCOC(=O)c1cn(-c2cc(N)c(F)c(F)c2F)c2cc(F)c(F)cc2c1=O`, the melting point was 116 to 124 °C.

`N#Cc1ccc2c(c1)C1(c3ccccc3-2)c2ccccc2-c2ccc(C#N)cc21` displayed a melting point of 215 to 245 °C.

Compound `O=C(O)CCc1c(C=C2C(=O)Nc3ccc(Cl)cc32)[nH]c2c1CCCC2` registered a melting point of 370 to 384 °C.

Compound `CC(C)Oc1ccc(OCc2ccccc2)cc1-c1nc2ccc(CO)nc2[nH]1` showed a melting point of 167 to 168 °C.

For `CCOC(=O)CC(=O)c1cc(Oc2ccccc2)c(NS(C)(=O)=O)cc1O`, the melting point is 112 °C.

`CCCCCCCCCCCCCCCCCC(O)c1cc(C(=O)OCC)ccc1O` (centres undefined) yielded a melting point of 75 °C.

For the compound `C=C1CCC2(Cc3ccccc3)C3Cc4ccc(O)cc4C2(CCN3CC2CC2)C1` (centres undefined), the melting point was found to be 212 °C.

For the compound `O=C(Nc1nccs1)c1cn(-c2ccccc2)c2ccccc2c1=O`, the melting point turned out to be 290 °C.

On to `COc1ccc(CNc2ncccc2C(=O)Nc2cccnc2Cl)cc1`, for which the melting point lay within 122 to 124 °C.

On to `O=CC1=C(c2ccc3sccc3c2)N2CCN=C2S1`, for which the melting point turned out to be 146 °C.

In the case of `OCC1OC(n2c(Cl)nc3cc(Br)c(Br)cc32)C(O)C1O` (centres undefined), the melting point lay within 126 to 129 °C.

`CCOC(=O)CN(CP(=S)(Oc1ccccc1)Oc1ccccc1)C(=O)C(F)(F)F` registered a melting point of 50 to 52 °C.

The compound `Cn1c(CO)nnc1NCCCCOc1cccc(CN2CCCCC2)c1` came in with a melting point of 128 to 130 °C.

The compound `CN(C1=CC(=O)CC1)[C@@H]1c2cc(C#N)ccc2OC(C)(C)[C@H]1O` (relative stereo) showed a melting point of 271 to 274 °C.

Regarding `Cc1nc(-c2nn(Cc3ccccc3F)c3ccccc23)oc1CO`, the melting point was determined as 144 °C.

Take `CCc1ccc(C=NNC(=O)c2ccc(O)cc2)o1`: the melting point was found to be 60.5 °C.

`CC(C)c1ccc(OCCCCCCCCCCCCC(Cl)(Cl)C(=O)O)cc1` returned a melting point of 47 to 49 °C.

Regarding `O=C1OC2(CCN(C(=O)Nc3cnc(-c4ccccc4)cn3)CC2)c2ccccc21`, the melting point was 206 °C.

For `CCC(CN1C(=O)c2ccccc2C1=O)n1cnc(-c2cccnc2)c1` (centres undefined), the melting point fell in the range of 150 to 152 °C.

On to `CCOC(=O)N(C(=O)N1CC(c2ccc(Cl)cn2)C(c2ccc(F)cc2)=N1)c1ccc(OC(F)(F)F)cc1` (centres undefined), for which the melting point was in the range of 160 to 161 °C.

`COc1ccc(COC(=O)NCCc2c[nH]c3ccccc23)cc1` registered a melting point of 108 to 109 °C.

For `COc1cccc(-c2cc3c(n2-c2ccc(O)c(C(=O)O)c2)CCCC3)c1`, the melting point lay in the range of 175 to 177 °C.

Regarding `Cc1ccc(C(=O)NC(NC(=S)Nc2cccc([N+](=O)[O-])c2)C(F)(F)F)cc1` (centres undefined), the melting point is 185 to 186 °C.

Compound `COc1ccccc1/C=C/C(=O)Nc1cccc(NC(=N)c2ccccc2)c1` came in with a melting point of 219 to 221 °C.

In turn, `CCN=C(NC#N)NCCSCc1ncccc1Br` had a melting point of 123 to 124 °C.

The compound `NC(=O)c1cccc(-c2ccc(Cl)c3cc(Cc4cc(F)cc(Cl)c4)sc23)c1` gave a melting point of 169 to 170 °C.

Take `COC(=O)C(Oc1ccc(Cl)c2c1CCCC2)c1ccc(Oc2ccc(Cl)cc2)cc1` (centres undefined): the melting point was 87.5 to 90 °C.

Compound `O=C(OCCOc1ccc2ncnn2n1)N1CCN(C(c2ccccc2)c2ccccc2)CC1` registered a melting point of 157 to 159 °C.

Consider `Cn1ncc(/C=C/C(=O)Nc2ccc(CCc3nnco3)cc2)c1-c1ccc(F)cc1`, for which the melting point fell in the range of 177 to 178 °C.

Compound `CCc1cc(NC(=O)N2CCN(c3cc(N4CCCC4)nc(N4CCCC4)n3)CC2)c(OC)nc1C` registered a melting point of 162 to 166 °C.

The compound `COc1cc2c(cc1OCc1ccccc1)CCN(C(=O)c1cccc(C#N)c1)C2=O` returned a melting point of 195 to 196 °C.

In turn, `Cc1nccc2[nH]c(=O)c(C(=O)NN)cc12` came in with a melting point of more than 310 °C.

Regarding `O=C(O)c1cccc(-c2cccn3cc(Cc4cccc(C(F)(F)F)c4)nc23)c1`, the melting point lay in the range of 179 to 180 °C.

In turn, `CC(C)(C)C(=O)c1ccc(C(=O)O)cc1` gave a melting point of 160 to 162 °C.

As to `CCOCC(=O)OCC(=O)C1(O)CCC2C3CC(C)C4=CC(=O)C=CC4(C)C3C(O)CC21C` (centres undefined), the melting point was 229 °C.

`Brc1cccc(OCc2ccc3ccccc3c2)n1`: the melting point fell in the range of 67 to 69 °C.

`COc1ccc2c(c1)Sc1cc(OC)ccc1N2` returned a melting point of 194 to 196 °C.

The compound `COc1nccnc1OCC(O)CN1CCC(N2CCN(c3ccccc3)C2=O)CC1` (centres undefined) yielded a melting point of 128 to 129 °C.

As to `O=C(COc1ccc(-c2ccccc2-c2nn[nH]n2)cc1)C1CC1`, the melting point is 184 to 185 °C.

The compound `OCc1cc(N2CCCC2)ncn1` returned a melting point of 136 to 139 °C.

In turn, `Cc1ccccc1N1C(=O)CN2C(=O)CCC21` (centres undefined) registered a melting point of 138 to 139 °C.

On to `CNC(=O)c1ccc(N2CCN(c3ccncc3)CC2)cc1`, for which the melting point lay in the range of 239 to 242 °C.

In the case of `CCN(CC)c1ccc(C(=O)C#Cc2ccncc2)cc1`, the melting point lay in the range of 85 to 87 °C.

As to `CCCCNS(=O)(=O)c1ccc(S(N)(=O)=O)cc1`, the melting point was 164 to 167 °C.

`N#Cc1c(N2CCc3ccccc3CC2)nc2n(c1=O)CCC2` registered a melting point of 184 to 190 °C.

For `Cc1cc(-c2cnn3c(C(F)(F)F)cc(-c4ccc(OCC(F)(F)F)c(C(F)(F)F)c4)nc23)ccn1`, the melting point is 210 °C.

`CN(C)C(=N[N+](=O)[O-])N(Cc1cnc(Cl)s1)S(C)(=O)=O` displayed a melting point of 82 to 86 °C.

`CCOC(=O)C(OCC)C(=O)Nc1cc(Cl)cc(Cl)c1` (centres undefined) came in with a melting point of 84 to 86 °C.

Regarding `CCCOc1cc2c(c3c(=O)c(-c4ccc(OC)cc4)cn(CCCN4CCOCC4)c13)CCC2`, the melting point lay within 135 to 137 °C.

The compound `COc1nccnc1C1=CN2CCC1CC2` yielded a melting point of 95 to 96 °C.

The compound `COC(=O)COc1ccc(C(=O)CN(C)C(=O)OCc2ccccc2)cc1OCC(=O)OC` had a melting point of 56 to 59 °C.

The compound `Cc1cc2c(s1)Oc1cccc(C)c1N=C2N1CCN(C)CC1` showed a melting point of 114 to 117 °C.

On to `CN(C)CCOc1c(-c2ccc(S(C)(=O)=O)cc2)cnn(-c2cccc(Cl)c2)c1=O`, for which the melting point lay in the range of 110 to 113 °C.

Compound `Cn1c([N+](=O)[O-])cnc1COc1ccc(C#N)cc1` had a melting point of 130 °C.

Consider `O=C(CBr)c1ccc(S(=O)(=O)Cl)cc1`, for which the melting point was found to be 111 °C.

`C=Cc1c2c(c(C)c(C)c1N1CCN(c3ccc(OC)cc3)CC1)OC(C)(C)C2` showed a melting point of 135 to 136 °C.

For the compound `CC12C=CC(=O)C=C1C(SC#N)C(O)C1C2CCC2(C)C(=O)CCC12` (centres undefined), the melting point fell in the range of 206 to 208 °C.

`O=c1c2ccc(Cl)cc2[nH]n2cccc12`: the melting point is more than 300 °C.

`COC(=O)c1c(N(CC(C)C)CC(C)C)cccc1S(=O)(=O)NC(=O)Nc1nc(OC)cc(OC)n1` registered a melting point of 166 to 167 °C.

Compound `CNC(=O)CC1CN=C(c2cc3cc(Oc4ccc(S(C)(=O)=O)nc4)cc(OC(C)COC)c3[nH]2)S1` (centres undefined) registered a melting point of 107 to 109 °C.

On to `Cc1cccc2[nH]c(C(=O)NCCc3ccc(CCCC(=O)O)cc3)cc12`, for which the melting point is 132 to 134 °C.

With `Cc1nc(O)c(-c2ccccc2)s1`, the melting point lay in the range of 208 to 211 °C.

The compound `CC(=O)C(C)(C)C(Cl)C=Cc1ccccc1` (centres undefined) registered a melting point of 71 °C.

As for `CCOC(=O)c1cc(=O)cc(-c2ccc([N+](=O)[O-])cc2)o1`, the melting point was 160 to 162 °C.

As to `COC(=O)c1cc(Cl)c(Cl)c(C2=NOCC2)c1C`, the melting point was in the range of 74 to 76 °C.

In turn, `COc1cc(Br)cc2c(Cl)cc(C)nc12` came in with a melting point of 140 to 142 °C.

Regarding `CC1SC(N2N=C(c3ccc([N+](=O)[O-])cc3)c3cc4c(cc3CC2C)OCO4)=NC1=O` (centres undefined), the melting point is 213 to 214 °C.

Regarding `O=C1C(c2ccccc2)=C(c2ccccc2)C(=O)N1CCc1ccccc1F`, the melting point lay in the range of 111 to 112 °C.

With `COc1cc(C(=O)CC(=O)c2ccc(O)cc2O)cc(OC)c1OC`, the melting point was in the range of 284 to 286 °C.

As for `Cc1nc(C(C)(O)c2ccsc2)sc1CCO` (centres undefined), the melting point lay in the range of 127 to 129 °C.

`COC(=O)c1nc(-c2ccc(Cl)cc2F)cc(NC(C)=O)c1O`: the melting point lay within 201 to 206 °C.

With `Cc1sc(CO)c(C)c1C`, the melting point is 45 to 48 °C.

`CN1CCCCc2cc(Nc3ncc(Cl)c(N[C@@H]4CCCC[C@H]4NS(C)(=O)=O)n3)ccc21`: the melting point was in the range of 102 to 104 °C.

Compound `COc1nc(N)nc2c1CCO2` showed a melting point of 172 to 177 °C.

`NC(=O)NN=Cc1ccc(Cc2ccccc2)cc1` displayed a melting point of 118 to 120 °C.

On to `O=C(c1cccc2cc[nH]c12)N1CCN(c2cccc(C(F)(F)F)c2)CC1`, for which the melting point lay within 147 to 151 °C.

`O=C(O)c1coc(Cl)c1` returned a melting point of 124 to 125 °C.

In turn, `COC(=O)c1nc(CN2CCOCC2)n(-c2ccc(Cl)cc2C(=O)c2ccccc2Cl)n1` registered a melting point of 141 to 143 °C.

`CC(Oc1ccc(COc2ccc(Cl)cc2)cc1)C(=O)OCCOc1cc(Cl)c(Cl)cc1Cl` (centres undefined): the melting point was 83 °C.

Compound `COCOc1ccc(Nc2ncccc2NS(=O)(=O)c2ccc(OC)cc2)cc1` displayed a melting point of 118 to 119 °C.

`COc1cccc(C(CN2CCN(c3cccc(C(F)(F)F)c3)CC2)C2(O)CCCC2)c1` (centres undefined) displayed a melting point of 158 to 160 °C.

`Cc1cccc(NC(=O)NCC(=O)N(CC(=O)OCc2ccccc2)c2ccccc2)c1` had a melting point of 140 °C.

The compound `CC(C)c1nc2[nH]c(=O)[nH]c(=O)c2c(-c2ccc(F)cc2)c1/C=C/C=O` returned a melting point of 255 °C.

In turn, `CS(=O)(=O)Nc1ccc(C(=O)N[C@@H](Cc2ccc(-c3ccccc3C(F)(F)F)cc2)C(=O)O)c(Cl)c1` yielded a melting point of 114 °C.

Regarding `O=C(Cc1ccccc1)c1ccncc1`, the melting point fell in the range of 94 to 96 °C.

`CN1CCCC1=NCCSc1cc2ccccc2[nH]1` gave a melting point of 175 to 177 °C.

Usually melting point stands for the temperature, or range, at which the solid turns liquid.
